Source: patent publication US8138309B2, “Modified rubisco large subunit n-methyltransferase useful for targeting molecules to the active-site vicinity of ribulose-1,5-bisphosphate” (University of Kentucky Research Foundation, priority 2008, dated 2012)

Biological target: T1, spinach Rubisco (Spinacia oleracea, UniProt P00875)
T1 construct: Spinach and pea Rubisco, and pea Rubisco LSMT were purified according to McCurry; from tissue
Assay: Rubisco carboxylase assay (14CO2 fixation, O2-free, CO2-free buffers), spinach Rubisco
Assay type: biochemical
Conditions: added to the Rubisco complex containing bound CA before the assay; AdoMet 100 μM
Description: Kinetic analyses were performed as described previously for Rubisco Lorimer, G. H., Badger, M. R., and Andrews, T. J. Biochemistry 15, 529-536.1976. Pierce, J. W., McCurry, S. D., Mulligan, R. M., and Tolbert, N. E. Methods Enzymol. 89 Pt D, 47-55.1982. Assays were conducted under O2 free conditions with CO2-free buffers as described below, and contained normalized Rubisco and hCAII activities, unless otherwise indicated. The assays contained, unless otherwise indicated, 100 mM Bicine adjusted to pH 8.2 with a saturated NaOH solution, 20 mM MgCl2, 2 mM dithiothreitol, 0.5 mM RuBP, and NaH^14 CO3 (1.0 mCi/mmol). Reactions were initiated by the addition of activated Rubisco, or conjugate, injected into an 8 mL serum capped vial (first flushed with nitrogen). Activation of Rubisco or conjugate was performed at 2 mg/mL by incubation at 30 C for 15 min in 50 mM Bicine, pH 8.2, containing 20 mM MgCl2 and 15 mM NaH^14CO3. Assay times, enzyme masses, volumes, or specific activities were adjusted to limit substrate consumption to 10% or less. The assays were terminated by the addition by 2N HCl (0.4 volumes), and the liquid evaporated to dryness under a stream of air at 50° C. Radioactivity was determined with a liquid scintillation analyzer (Packard 2000 CA), after addition of 0.5 mL H20 and 4.5 mL of cocktail (Bio-Safe II, RPI). […]

Compound: C[S+](CC[C@H](N)C(=O)[O-])C[C@H]1O[C@@H](n2cnc3c(N)ncnc32)[C@H](O)[C@@H]1O (stereo partly shown) [AdoMet, S-adenosylmethionine]
- effect on the stimulation of carboxylase activity by bound CA: the effect of bound CA was abolished
